Experimental data as given in PubChem BioAssay (NCI).
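Step 1: Grow cells in 96-well plates. Step 2: Expose to compound for 48 hours at 5 concentrations. Step 3: Interpolate endpoints linearly; if unreached, use highest concentration. The concentration for 50% growth inhibition is given as GI50. TGI denotes the concentration required for complete inhibition of growth.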

Legend:
Assay in all cases: inhibition of tumour cell growth, NCI panel, 48 h
OVCAR-8 ovarian = tested on: OVCAR-8 ovarian
SK-OV-3 ovarian = tested on: SK-OV-3 ovarian
NCI-H226 lung = tested on: NCI-H226 lung
T-47D breast = tested on: T-47D breast
MALME-3M melanoma = tested on: MALME-3M melanoma
HT29 colon = tested on: HT29 colon
COLO 205 colon = tested on: COLO 205 colon
OVCAR-5 ovarian = tested on: OVCAR-5 ovarian
SF-539 CNS = tested on: SF-539 CNS
SK-MEL-2 melanoma = tested on: SK-MEL-2 melanoma
NCI-H460 lung = tested on: NCI-H460 lung
SNB-19 CNS = tested on: SNB-19 CNS
M14 melanoma = tested on: M14 melanoma
K-562 leukemia = tested on: K-562 leukemia
NCI-H23 lung = tested on: NCI-H23 lung
UACC-257 melanoma = tested on: UACC-257 melanoma
A549 NSCLC = tested on: A549 NSCLC
EKVX NSCLC = tested on: EKVX NSCLC
SK-MEL-5 melanoma = tested on: SK-MEL-5 melanoma
MCF7 breast = tested on: MCF7 breast
UO-31 renal = tested on: UO-31 renal
TK-10 renal = tested on: TK-10 renal
HL-60(TB) leukemia = tested on: HL-60(TB) leukemia
SNB-75 CNS = tested on: SNB-75 CNS
SF-295 CNS = tested on: SF-295 CNS
HOP-62 NSCLC = tested on: HOP-62 NSCLC
NCI-H522 lung = tested on: NCI-H522 lung
SW-620 colon = tested on: SW-620 colon
U251 CNS = tested on: U251 CNS
OVCAR-3 ovarian = tested on: OVCAR-3 ovarian
OVCAR-4 ovarian = tested on: OVCAR-4 ovarian
MOLT-4 leukemia = tested on: MOLT-4 leukemia
HOP-92 NSCLC = tested on: HOP-92 NSCLC
NCI/ADR-RES ovarian = tested on: NCI/ADR-RES ovarian
KM12 colon = tested on: KM12 colon
SF-268 CNS = tested on: SF-268 CNS
HS 578T breast = tested on: HS 578T breast
CAKI-1 renal = tested on: CAKI-1 renal
UACC-62 melanoma = tested on: UACC-62 melanoma
BT-549 breast = tested on: BT-549 breast
LOX IMVI melanoma = tested on: LOX IMVI melanoma
ACHN renal = tested on: ACHN renal
CCRF-CEM leukemia = tested on: CCRF-CEM leukemia
HCT-15 colon = tested on: HCT-15 colon
MDA-MB-435 = tested on: MDA-MB-435
HCT-116 colon = tested on: HCT-116 colon
SR leukemia = tested on: SR leukemia
SN12C renal = tested on: SN12C renal
HCC-2998 colon = tested on: HCC-2998 colon
786-0 renal = tested on: 786-0 renal
RPMI-8226 leukemia = tested on: RPMI-8226 leukemia
MDA-MB-231 breast = tested on: MDA-MB-231 breast
SK-MEL-28 melanoma = tested on: SK-MEL-28 melanoma
IGROV1 ovarian = tested on: IGROV1 ovarian
RXF 393 renal = tested on: RXF 393 renal
DU-145 prostate = tested on: DU-145 prostate
PC-3 prostate = tested on: PC-3 prostate

CC(C)=CCc1c2c(c(O)c3c1O[C@]14C(=C[C@@H]5C[C@H]1C(C)(C)O[C@@]4(C/C=C(/C)C(=O)O)C5=O)C3=O)CC(O)C(C)(C)O2 (some centres undefined)
GI50 (OVCAR-8 ovarian): 18 µM | TGI (OVCAR-8 ovarian): 45.1 µM | GI50 (SK-OV-3 ovarian): 40.6 µM | TGI (SK-OV-3 ovarian): > 100 µM | GI50 (NCI-H226 lung): 23.8 µM | TGI (NCI-H226 lung): 72.7 µM | GI50 (T-47D breast): 19 µM | TGI (T-47D breast): 58.8 µM | GI50 (MALME-3M melanoma): 21.9 µM | TGI (MALME-3M melanoma): 52.5 µM | GI50 (HT29 colon): 22 µM | TGI (HT29 colon): 62.4 µM | GI50 (COLO 205 colon): 20.2 µM | TGI (COLO 205 colon): 43.4 µM | GI50 (OVCAR-5 ovarian): 28.6 µM | TGI (OVCAR-5 ovarian): 74 µM | GI50 (SF-539 CNS): 20.7 µM | TGI (SF-539 CNS): 46.5 µM | GI50 (SK-MEL-2 melanoma): 16.6 µM | TGI (SK-MEL-2 melanoma): 34.7 µM | GI50 (NCI-H460 lung): 16.7 µM | TGI (NCI-H460 lung): 39.6 µM | GI50 (SNB-19 CNS): 17.7 µM | TGI (SNB-19 CNS): 40.4 µM | GI50 (M14 melanoma): 14.7 µM | TGI (M14 melanoma): 34.7 µM | GI50 (K-562 leukemia): 11.6 µM | TGI (K-562 leukemia): > 100 µM | GI50 (NCI-H23 lung): 17.7 µM | TGI (NCI-H23 lung): 48.4 µM | GI50 (UACC-257 melanoma): 19.4 µM | TGI (UACC-257 melanoma): 43.8 µM | GI50 (A549 NSCLC): 31 µM | TGI (A549 NSCLC): 78.1 µM | GI50 (EKVX NSCLC): 21.6 µM | TGI (EKVX NSCLC): 69.8 µM | GI50 (SK-MEL-5 melanoma): 15 µM | TGI (SK-MEL-5 melanoma): 30.3 µM | GI50 (MCF7 breast): 9.1 µM | TGI (MCF7 breast): 52.4 µM | GI50 (UO-31 renal): 14.8 µM | TGI (UO-31 renal): 32.7 µM | GI50 (TK-10 renal): 23.8 µM | TGI (TK-10 renal): 41.1 µM | GI50 (HL-60(TB) leukemia): 27.9 µM | TGI (HL-60(TB) leukemia): 68 µM | GI50 (SNB-75 CNS): 21.3 µM | TGI (SNB-75 CNS): 64.1 µM | GI50 (SF-295 CNS): 27.9 µM | TGI (SF-295 CNS): 87 µM | GI50 (HOP-62 NSCLC): 20.6 µM | TGI (HOP-62 NSCLC): 42.5 µM | GI50 (NCI-H522 lung): 14.9 µM | TGI (NCI-H522 lung): 28.4 µM | GI50 (SW-620 colon): 13.2 µM | TGI (SW-620 colon): 33.2 µM | GI50 (U251 CNS): 15 µM | TGI (U251 CNS): 30.1 µM | GI50 (OVCAR-3 ovarian): 14.5 µM | TGI (OVCAR-3 ovarian): 28 µM | GI50 (OVCAR-4 ovarian): 24.4 µM | TGI (OVCAR-4 ovarian): 86.8 µM | GI50 (MOLT-4 leukemia): 17.3 µM | TGI (MOLT-4 leukemia): 65.1 µM | GI50 (HOP-92 NSCLC): 22.1 µM | TGI (HOP-92 NSCLC): 48.9 µM | GI50 (NCI/ADR-RES ovarian): 30.9 µM | TGI (NCI/ADR-RES ovarian): > 100 µM | GI50 (KM12 colon): 18.6 µM | TGI (KM12 colon): 39.6 µM | GI50 (SF-268 CNS): 14.7 µM | TGI (SF-268 CNS): 34.5 µM | GI50 (HS 578T breast): 14.1 µM | TGI (HS 578T breast): 86 µM | GI50 (CAKI-1 renal): 19.9 µM | TGI (CAKI-1 renal): 57 µM | GI50 (UACC-62 melanoma): 15.5 µM | TGI (UACC-62 melanoma): 34.8 µM | GI50 (BT-549 breast): 12.4 µM | TGI (BT-549 breast): 26.4 µM | GI50 (LOX IMVI melanoma): 11.2 µM | TGI (LOX IMVI melanoma): 25.2 µM | GI50 (ACHN renal): 27.7 µM | TGI (ACHN renal): 85.7 µM | GI50 (CCRF-CEM leukemia): 5.76 µM | TGI (CCRF-CEM leukemia): 40.9 µM | GI50 (HCT-15 colon): 22.6 µM | TGI (HCT-15 colon): > 100 µM | GI50 (MDA-MB-435): 18.9 µM | TGI (MDA-MB-435): 51.8 µM | GI50 (HCT-116 colon): 13.2 µM | TGI (HCT-116 colon): 26.7 µM | GI50 (SR leukemia): 7.8 µM | TGI (SR leukemia): > 100 µM | GI50 (SN12C renal): 18.9 µM | TGI (SN12C renal): 51 µM | GI50 (HCC-2998 colon): 17.7 µM | TGI (HCC-2998 colon): 32.9 µM | GI50 (786-0 renal): 19.7 µM | TGI (786-0 renal): 38 µM | GI50 (RPMI-8226 leukemia): 10.1 µM | TGI (RPMI-8226 leukemia): 53.6 µM | GI50 (MDA-MB-231 breast): 26.5 µM | TGI (MDA-MB-231 breast): 92.2 µM | GI50 (SK-MEL-28 melanoma): 19.7 µM | TGI (SK-MEL-28 melanoma): 47.6 µM | GI50 (IGROV1 ovarian): 20.3 µM | TGI (IGROV1 ovarian): 64.1 µM | GI50 (RXF 393 renal): 19 µM | TGI (RXF 393 renal): 38.2 µM | GI50 (DU-145 prostate): 20.8 µM | TGI (DU-145 prostate): 48.1 µM | GI50 (PC-3 prostate): 19.8 µM | TGI (PC-3 prostate): 49.1 µM
